Article PMC7700651 (International Journal of Molecular Sciences, 2020)
Bridge positions count the residues as written; N and C are the ends. Peptide text beside a SMILES is read from it.

T1: BTLA/HVEM complex (Homo sapiens, UniProt Q92956)
T1 construct: expressed in transfected cells; host or cells: Jurkat JE6.1 NFκB-eGFP reporter cells (HVEM); T cell stimulator cells from mouse thymoma BW5147 (BTLA)
T1 sequence (Q92956 39-283): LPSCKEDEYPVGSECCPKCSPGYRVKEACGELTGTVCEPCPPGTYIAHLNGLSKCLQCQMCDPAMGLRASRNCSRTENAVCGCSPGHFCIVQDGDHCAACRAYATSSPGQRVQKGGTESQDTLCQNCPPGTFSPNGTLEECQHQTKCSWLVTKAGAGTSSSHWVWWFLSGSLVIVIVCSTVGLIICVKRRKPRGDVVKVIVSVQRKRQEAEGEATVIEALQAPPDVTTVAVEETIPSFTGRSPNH

T2: BTLA/HVEM complex (Homo sapiens, UniProt Q92956)
T2 construct: His; purchased ACROBiosystems (HVEM-His); Novoprotein (BTLA-Fc) #HVM-H52E9; #CD06
T2 sequence (Q92956 39-202 limits assumed): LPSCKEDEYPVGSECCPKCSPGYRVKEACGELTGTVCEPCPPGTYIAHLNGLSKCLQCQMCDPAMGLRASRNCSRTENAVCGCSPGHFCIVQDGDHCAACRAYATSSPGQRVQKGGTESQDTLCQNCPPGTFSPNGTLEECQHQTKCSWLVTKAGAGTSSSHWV

T3: recombinant human HVEM with His tag (human, UniProt Q92956 39-202)
T3 construct: also called HVEM-His; herpesvirus entry mediator; source: bought: ACROBiosystems (#HVM-H52E9)
T3 sequence (looked up): T2 sequence (Q92956 39-202 limits assumed)

B1: gD(1-36) (peptide)
peptide: Ac-KYALVDASLKMADPNRFRGKDLPVLDQLTDPPGVRR-NH2
notes: source: synthetic peptide

Key:
[1] = Stability of peptides in cell culture medium (RPMI1640 with 10% FCS), RP-HPLC; format: in vitro ADME; details: 37 °C, at least triplicate
Excerpt: A low stability in solution, which could be connected with many different processes such as aggregation, conformation changes, and chemical degradation, including deamidation and isomerization, oxidation, hydrolysis, and racemization, is a major concern for the therapeutic application of peptides. For the presented study, the stability of the peptides in PBS buffer and medium (solutions used in tests described above) was studied and determined using RP-HPLC. The analysis was done by comparing the area under the peaks in a control sample (peptide dissolved in water, time = 0) and a sample after incubation in PBS or medium.
200 µL of medium (RPMI1640 with 10% FCS)/human plasma was added to 50 µL of each peptide (1 mg/mL). The samples were incubated for different times (0, 2, 3, 6, and 24 h) at 37 °C. They were then precipitated by the addition 1 mL of absolute ethanol, incubated on ice for 15 min and centrifuged at 18,000 rpm for 20 min at 4 °C. The supernatants were collected and dried under vacuum. The samples were then resuspended in 120 µL of 0.1% TFA and analyzed by RP-HPLC under the same conditions as described for the determination of the stability of the peptides in PBS. All stability tests were performed at least in triplicate. Blood was obtained from donor volunteers and centrifuged in lithium/heparin tubes. EDTA was used as an anticoagulant.

BTLA/HVEM complex [2] = target: T1, BTLA/HVEM complex; assay: Cell-based reporter assay (HVEM-expressing Jurkat NFκB-eGFP reporter cells stimulated with TCS-BTLA); details: 1.5 mg/mL; reporter cells pre-incubated 30 min with peptide, then TCS-BTLA 24 h; flow cytometry; three experiments in duplicate
Excerpt: To assess the capacities of the gD peptides to interfere with the BTLA/HVEM complex in a functional in vitro setting, reporter cells (NFκB-eGFP), which are based on the human Jurkat T cell line JE6.1 were transduced to express HVEM [34]. These reporter cells can be stimulated by T cell stimulator cells (TCS) expressing a membrane-bound anti-CD3 antibody fragment, which is able to engage the TCR-CD3 complex and thereby activate the NFκB pathway. In addition, to control TCS, TCS expressing the corresponding co-stimulatory ligand BTLA were generated in order to trigger HVEM in trans on the reporter cells (Figure S4). To validate the HVEM reporter system, control, and HVEM - expressing reporter cells were stimulated with control TCS and TCS expressing BTLA (Figure S4). Engagement of BTLA with HVEM induced high expression of NFκB-eGFP. To determine the inhibitory properties of the gD peptides, HVEM reporter cells were pre-incubated with the indicated peptides at different concentrations, followed by stimulation with control TCS or TCS-BTLA (Figure 4).
Figure 4 The inhibitory function of the peptides in a reporter cell-based assay. HVEM reporter cells were stimulated with TCS expressing BTLA in the absence or presence of the indicated gD peptides at concentrations of 1.5 mg/mL, 750 μg/mL, and 375 μg/mL. Reporter gene expression (NFκB-eGFP), upon stimulation with TCS-BTLA, was normalized to reporter activation after stimulation with TCS control in the presence of the respective peptides. BTLA/HVEM stimulation in the absence of peptides was set to 100% activation. Results are shown for three experiments performed independently in duplicate. Data are depicted as mean with SEM. * indicates statistically significant differences compared to full activation (100%), two-way ANOVA followed by Bonferroni’s post hoc test; p < 0.0001.
For functional assays, HVEM-expressing reporter cells (5 × 10^4 cells/well) were pre-incubated with different concentrations of gD peptides for 30 min in a 96 flat bottom plate. Control TCS or TCS expressing BTLA (2 × 10^4 cells/well) were subsequently added for 24 h at 37 °C with 5% CO2. After 24 h, the cells were harvested and stained with an mCD45.2 antibody to exclude TCS from the reporter cells. Expression of the reporter gene (eGFP) was then measured via flow cytometry. The mean and standard deviation of the gMFI of the viable population of reporter cells (mCD45.2+ stimulator cells were excluded) were determined. Each experiment was performed in duplicate.

HVEM protein = target: T4, HVEM protein (Homo sapiens, UniProt Q92956); assay: Affinity test: peptide on microcolumn with immobilized HVEM, fractions analysed by mass spectrometry; format: binding; details: for Interaction with HVEM protein in affinity test: microcolumn with immobilized HVEM, presence in elution fraction by mass spectrometry
T4 construct: His; purchased ACROBiosystems #HVM-H52E9
Method: Affinity tests were performed to confirm the interaction of the designed peptides with HVEM protein. The peptide was added to a microcolumn with immobilized HVEM protein, and binding was checked using mass spectrometry, according to a procedure described earlier.
The affinity tests were performed according to the procedure described in our previous paper. The MS spectrums were registered using a MALDI-TOF/TOF autoflex maX (Bruker, Billerica, MA, USA) mass spectrometer.

BTLA/HVEM complex [3] = target: T2, BTLA/HVEM complex; assay: ELISA, inhibition of BTLA/HVEM complex formation; format: biochemical; details: peptides 1.5 to 0.375 mg/mL, 24 h, 37 °C; HVEM-His coated; BTLA-Fc 5 μg/mL
Method: ELISA tests were performed to check the inhibitory properties of the peptides. HVEM protein was first immobilized in microplates and then the peptides were added in three different concentrations and incubated with HVEM. Unbound peptides were then removed and BTLA-Fc protein was added. For the detection of BTLA-Fc protein, a goat anti-human IgG (H+L)-HRP conjugate and TMB (3,3’,5,5’-tetramethylbenzidine) were applied. As a positive control, anti-HVEM antibodies, which inhibit the BTLA/HVEM complex formation by about 50%, were used (Figure 3A and Figure S3). […] The inhibitory properties of the peptides were also studied for the complex HVEM/LIGHT, using the same procedure and conditions as described above, but with the application of LIGHT protein instead of BTLA protein. A significant increase in inhibitory properties was observed only for the anti-HVEM antibodies (positive control), which inhibited the HVEM/LIGHT binding by about 75% (Figure 3B and Figure S3). None of the tested peptides inhibited the formation of the LIGHT/HVEM complex (Figure 3B).
A 96-well Immunograde plate (Brand, Wertheim, Germany) was coated with 5 μg/mL of recombinant HVEM-His protein in PBS (100 μL/well) and incubated overnight at 4 °C. The plate was washed 5 times (200 μL/well) with PBS-T (5 mM Na2HPO4, 150 mM NaCl with the addition of 0.3 M NaCl and 0.05% Tween-20, pH 7.4) and blocked with 5% BSA in PBS-T for 2 h at 37 °C. The peptides were then titrated in triplicate from 1.5 to 0.375 mg/mL (100 µL/well) in PBS-T and incubated for 24 h at 37 °C. Maximum binding of HVEM to BTLA/LIGHT was determined by adding PBS-T to negative control wells, whereas maximum inhibition was measured by adding anti-HVEM (1 µg/well). The plate was then washed and incubated with recombinant BTLA-Fc/LIGHT-Fc protein at 5 μg/mL in PBS-T (100 μL/well) for 2 h at 37 °C. Goat anti-human IgG (H+L)-HRP conjugate (Bio-Rad, Hercules, CA, USA) antibody was then added (1:3000; 100 μL/well) and incubated for 1 h at 37 °C. Finally, BTLA-Fc/LIGHT-Fc was detected by the addition of 100 μL/well of TMB (Thermo Scientific, Waltham, MA, USA). Absorbance was measured using Infinite M200 Pro (Tecan Life Sciences, Männedorf, Switzerland) at 650 nm and 492 nm. […] ELISA tests were performed at least in triplicate. The data are presented as mean ± standard deviation (SD). The results were analyzed by one-way analysis of variance (ANOVA) followed by Dunnett’s post-hoc test using GraphPad Prism (San Diego, CA, USA).

[4] = target: T3, recombinant human HVEM with His tag; assay: affinity purification with mass spectrometry; HVEM protein immobilised in a microcolumn; peptide added; supernatant, last wash and elution fractions analysed by MALDI-TOF/TOF MS; procedure of ref. 33; details: both partners purified

Molecule	Stability in medium (and PBS), in words ([1]; up to 24 h)	Capacity to interfere with BTLA/HVEM complex (reduction of NFκB-eGFP activation), in words (BTLA/HVEM complex [2])	Interaction with HVEM protein in affinity test (HVEM protein)	Inhibitory properties for BTLA/HVEM complex formation (ELISA), in words (BTLA/HVEM complex [3])	metabolised at 24 h, 0.2 mg/mL ([1]; cell culture medium (RPMI1640 with 10% FCS), 200 µL + 50 µL peptide 1 mg/mL, 24 h, ethanol precipitation, read-out: Degradation in medium after 24 h) [%]	Elution [M+H]+ (signal in elution fraction = binding to immobilized HVEM) (HVEM protein; MALDI-TOF MS of elution fraction, binding confirmed if m/z signal present in elution and none in last wash, '-' = no signal)	binding result [4]
Ac-ASLKMADPN-NH2 [gD(7-15)]	almost completely degraded	no effect	do not interact with HVEM protein	do not inhibit BTLA/HVEM complex formation	–	–	–
Ac-DQLTDPP-NH2 [gD(26-32)]	–	weak blocking effect	do not interact with HVEM protein	do not inhibit BTLA/HVEM complex formation	–	–	–
CSCC[C@@H]1NC(=O)[C@H](CC(=O)O)NC(=O)[C@H](CC(C)C)NC(=O)[C@H](CC(C)C)NC(=O)[C@H](CC(=O)O)NC(=O)[C@H](C(C)C)NC(=O)[C@H](C)NC(=O)[C@H](C(C)C)NC(=O)CNC(=O)[C@H](CC(=O)O)NC(=O)[C@@H](NC(=O)CNC(=O)[C@H](CCCCN)NC(=O)[C@H](CO)NC(=O)[C@H](C)NC(=O)[C@H](CCCNC(=N)N)NC(=O)[C@H](CC(C)C)NC(=O)[C@@H]2CCCN2C(=O)[C@H](CCCNC(=N)N)NC(=O)[C@H](CC(=O)O)NC(C)=O)CSSC[C@@H](C(=O)N[C@@H](CC(C)C)C(=O)N[C@H](C(=O)N[C@@H](CC(C)C)C(=O)N[C@@H](CC(=O)O)C(=O)N[C@@H](Cc2ccccc2)C(=O)N[C@@H](C)C(=O)N[C@@H](CCCNC(=N)N)C(N)=O)C(C)C)NC(=O)[C@@H]2CCCN2C(=O)[C@H](CC(N)=O)NC(=O)[C@H](CCCCN)NC(=O)[C@H](CCC(N)=O)NC(=O)[C@H](CCCNC(=N)N)NC(=O)[C@@H]2CCCN2C(=O)[C@H](Cc2ccc(O)cc2)NC(=O)[C@@H]2CCCN2C1=O [gD(1-36)(K10C-T29C)^SCR, reference compound] (Ac-DRPLRASKGCDGVAVDLLDMPYPRQKNPCLVLDFAR-NH2; disulfide 10-29)	–	weak blocking effect	–	no effect	–	–	–
CSCC[C@H](NC(=O)[C@H](CCCCN)NC(=O)[C@H](CC(C)C)NC(=O)[C@H](CO)NC(=O)[C@H](C)NC(=O)[C@H](CC(=O)O)NC(=O)[C@@H](NC(=O)[C@H](CC(C)C)NC(=O)[C@H](C)NC(=O)[C@H](Cc1ccc(O)cc1)NC(=O)[C@H](CCCCN)NC(C)=O)C(C)C)C(=O)N[C@@H](C)C(=O)N[C@@H](CC(=O)O)C(=O)N1CCC[C@H]1C(=O)N[C@@H](CC(N)=O)C(=O)N[C@@H](CCCNC(=N)N)C(=O)N[C@@H](Cc1ccccc1)C(=O)N[C@@H](CCCNC(=N)N)C(=O)NCC(=O)N[C@@H](CCCCN)C(=O)N[C@@H](CC(=O)O)C(=O)N[C@@H](CC(C)C)C(=O)N1CCC[C@H]1C(=O)N[C@H](C(=O)N[C@@H](CC(C)C)C(=O)N[C@@H](CC(=O)O)C(=O)N[C@@H](CCC(N)=O)C(=O)N[C@@H](CC(C)C)C(=O)N[C@H](C(=O)N[C@@H](CC(=O)O)C(=O)N1CCC[C@H]1C(=O)N1CCC[C@H]1C(=O)NCC(=O)N[C@H](C(=O)N[C@@H](CCCNC(=N)N)C(=O)N[C@@H](CCCNC(=N)N)C(N)=O)C(C)C)[C@@H](C)O)C(C)C [gD(1-36)]	–	weak blocking effect	binds to HVEM	did not prevent protein interaction	~50	4094.88	–
B1	–	–	–	–	–	–	binds
